Reference: patent publication US10294221B2, “1, 3, 4-thiadiazole compounds and their use in treating cancer” (AstraZeneca AB, priority 2014, dated 2019)

Key:
[1] = tested on: human NSCLC NCI-H1703 cells xenograft; assay: Mouse Xenograft Model, combination therapy study (NCI-H1703); assay type: in vivo; details: Male Scid mice
Procedure: Male Scid mice were transplanted s.c. with human NSCLC NCI-H1703 cells (ATCC-CRL-5889) to determine the in-vivo anti-tumour activity of GLS inhibitors. 1×10^7 cells in 50% matrigel (BD Bioscience) were injected s.c. on the left flank of the animals.
(§1) Animals were randomised into groups of 10-12 when tumours reached a volume of ˜200-300 mm^3 and treatment commenced. […] Tumours were measured twice weekly by calliper and volume of tumours calculated using elliptical formula (π/6×width×width×length). Statistical significance was evaluated using a one tailed, t-test. Taxotere® (Sanofi) was formulated in a physiological saline. Example 2 was formulated in a 1% Polysorbate 80 and pH adjusted with 1M HCL to a final pH concentration of pH3.5. Data is presented as mean tumour volume with calculated mean standard error bars.

[2] = tested on: human NSCLC NCI-H3122 cells xenograft; assay: Mouse Xenograft Model, monotherapy (NCI-H3122); assay type: in vivo; details: Female Harlan Nude mice, 50 mg/kg once daily peroral for 17 days, monotherapy (FIG. 2)
Procedure: as §1, with “Female Harlan Nude mice were transplanted s.c. with human NSCLC NCI-H3122 cells to determine the in-vivo anti-tumour activity of GLS inhibitors. 5×10^6 cells in 50% matrigel (BD Bioscience) were injected s.c. on the left flank of the animals. Animals” for “Animals”, “10-15” for “10-12”, “t-test.” for “t-test. Taxotere® (Sanofi) was formulated in a physiological saline.”

CO[C@H](C(=O)Nc1nnc(N[C@@H]2CCN(c3cccnn3)C2)s1)c1ccccc1 [Example 2(a), (2S)-2-Methoxy-2-phenyl-N-[5-[[(3R)-1-pyridazin-3-ylpyrrolidin-3-yl]amino]-1,3,4-thiadiazol-2-yl]acetamide]
Tumour growth (mean tumour volume), NCI-H1703 xenograft, combination with Taxotere ([1]; 100 mg/kg once daily peroral for 16 days in combination with once weekly intra-venous Taxotere (FIG. 3)): slight regression compared to Taxotere® monotherapy treatment | Tumour growth (mean tumour volume), NCI-H1703 xenograft, monotherapy ([1]; 100 mg/kg once daily peroral for 16 days, monotherapy (FIG. 3)): inhibition of growth in-vivo | Tumour growth (mean tumour volume), NCI-H3122 xenograft [2]: inhibition of growth in-vivo
